Measured values taken from article PMC9343605, “Structural insights into ligand recognition and selectivity of somatostatin receptors” (Cell Research, 2022).

How the values were obtained:
SSTR2 [1] = molecular target: SSTR2 (Homo sapiens, UniProt P30874, F275A); assay: Whole cell binding assay, SSTR2, competition with 125I-Tyr11-SST14, CHO-K1; settings: for Emax: CHO-K1, read-out: Span;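 as to all read-outs here: Cell-bound radioactivity in lysed CHO-K1 cells read by scintillation counting, each mutation introduced singly into the WT receptor, at least three independent experiments run in technical triplicate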
Procedure: (§1) For SSTR2 and SSTR4, CHO-K1 cells were cultured in F12 medium with 10% FBS and seeded at a density of 30,000 cells/well in Isoplate-96 plates (PerkinElmer). Twenty-four hours after transfection with the WT or mutant SSTR2/SSTR4, CHO-K1 cells were washed twice and incubated with blocking buffer (F12 supplemented with 25 mM HEPES and 0.1% (w/v) BSA, pH 7.4) for 2 h at 37 °C. […] Following incubation, cells were washed three times with ice-cold PBS and lysed by 50 μL lysis buffer (PBS supplemented with 20 mM Tris-HCl, 1% Triton X-100, pH 7.4). The radioactivity was subsequently counted (counts/min, CPM) in a scintillation counter (MicroBeta[2] Plate Counter, PerkinElmer) using a scintillation cocktail (OptiPhaseSuperMix, PerkinElmer). Data were analyzed by nonlinear regression using GraphPad PRISM 8.
(§2) aMutants represent that all mutations were introduced separately into the WT receptors
and expressed in CHO K1 cells.
(§3) bThe IC50 ratio was shown as IC50(mutant)/IC50(WT), indicating the shift between the WT
(§4) and mutant curves, reflecting the effect of the mutations on ligand binding.
(§5) cData are shown as mean ± S.E.M. form at least three independent experiments
(§6) performed in technical triplicate. One-way ANOVA was performed followed by
(§7) Dunnett’s post-test and compared with WT.
(§8) d The span is defined as the window between the maximal agonists response (Emax) and
(§9) e Sample size; the number of independent experiments performed in technical triplicate.

SSTR2 [2] = molecular target: T1, SSTR2 (Homo sapiens, UniProt P30874, F294A); assay: as above; settings: for Emax: CHO-K1, read-out: Span
Procedure: as §1, §2
and expressed in CHO K1 cells.
as §3, §4, §5, §6, §7, §8, §9

SSTR2 [3] = molecular target: T2, SSTR2 (Homo sapiens, UniProt P30874, F272A); assay: as above; settings: for Emax: CHO-K1, read-out: Span
Procedure: as §1, §2
and expressed in CHO K1 cells.
as §3, §4, §5, §6, §7, §8, §9

SSTR2 [4] = molecular target: SSTR2 (Homo sapiens, UniProt P30874, D295A); assay: as above
Procedure: as §1, §2
and expressed in CHO K1 cells.
as §3, §4, §5, §6, §7, §8, §9

SSTR2 [5] = molecular target: SSTR2 (Homo sapiens, UniProt P30874, N43A); assay: as above
Procedure: as §1, §2
and expressed in CHO K1 cells.
as §3, §4, §5, §6, §7, §8, §9

SSTR2 [6] = molecular target: T3, SSTR2 (Homo sapiens, UniProt P30874, Q102A); assay: as above; settings: for Emax: CHO-K1, read-out: Span
Procedure: as §1, §2
and expressed in CHO K1 cells.
as §3, §4, §5, §6, §7, §8, §9

SSTR2 [7] = molecular target: T4, SSTR2 (Homo sapiens, UniProt P30874, D122A); assay: as above; settings: CHO-K1, read-out: Span
Procedure: as §1, §2
and expressed in CHO K1 cells.
as §3, §4, §5, §6, §7, §8, §9

SSTR2 [8] = molecular target: T5, SSTR2 (Homo sapiens, UniProt P30874, Y302A); assay: as above; settings: CHO-K1, read-out: Span
Procedure: as §1, §2
and expressed in CHO K1 cells.
as §3, §4, §5, §6, §7, §8, §9

SSTR2 [9] = molecular target: T6, SSTR2 (Homo sapiens, UniProt P30874, Q126A); assay: as above; settings: for Emax: CHO-K1, read-out: Span
Procedure: as §1, §2
and expressed in CHO K1 cells.
as §3, §4, §5, §6, §7, §8, §9

SSTR2 [10] = molecular target: T7, SSTR2 (Homo sapiens, UniProt P30874); assay: as above; settings: for Emax: CHO-K1, read-out: Span
Procedure: as §1, §2
and expressed in CHO K1 cells.
as §3, §4, §5, §6, §7, §8, §9

SSTR2 [11] = molecular target: SSTR2 (Homo sapiens, UniProt P30874, S42A); assay: as above
Procedure: as §1, §2
and expressed in CHO K1 cells.
as §3, §4, §5, §6, §7, §8, §9

SSTR2 [12] = molecular target: T8, SSTR2 (Homo sapiens, UniProt P30874, K291A); assay: cAMP accumulation assay (agonist-induced inhibition of forskolin-stimulated cAMP), SSTR2, HEK293F; format: cell-based; settings: HEK293F; SSTR2 mutant K291^7.32A; mean ± SEM; read-out: Span;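 also: transiently transfected cells exposed to 2 µM forskolin and a ligand concentration series for 40 min at room temperature in IBMX-containing HBSS, then cAMP quantified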
T8 construct: expressed in transfected cells; host or cells: HEK293F
Procedure: (§10) HEK293F cells were transiently transfected with WT or mutant SSTR2/SSTR4 using transfection reagent (PEI MAX 2000, Polysciences) and incubated at 37 °C in 5% CO2. Forty-eight hours after transfection, cells were centrifuged and resuspended in stimulation buffer (Hanks’ balanced salt solution (HBSS) supplemented with 5 mM HEPES, 0.5 mM IBMX and 0.1% (w/v) bovine serum albumin (BSA), pH 7.4) to a density of 200,000 cells/mL and added to 384-well white plates (PerkinElmer, 1000 cells/well). cAMP accumulation was measured by a LANCE Ultra cAMP kit (PerkinElmer) according to the manufacturer’s instructions. In brief, transfected cells were incubated for 40 min in stimulation buffer with 2.5 μL forskolin (SSTR2: 2 μM; SSTR4: 4 μM) and gradient concentration of ligand at RT. The reactions were stopped by addition of lysis buffer containing 5 μL Eu-cAMP tracer and 5 μL ULight-anti-cAMP. Plates were then incubated for 60 min at RT and time-resolved FRET signals were measured at 620 nm and 665 nm by an EnVision multilabel plate reader (PerkinElmer). Data were analyzed in GraphPad PRISM 8 and all values were normalized to the WT for each ligand. All outcomes were repeated at least three times.
(§11) aMutants represent that mutations were introduced separately into the WT receptors and
(§12) transiently expressed in HEK 293F cells.
(§13) bThe EC50 ratio was shown as EC50(mutant)/EC50(WT), indicating the shift between the WT
(§14) and mutant curves, reflecting the effect of the mutations on receptor signaling.
(§15) cData are shown as mean ± S.E.M. from at least three independent experiments
as §6
(§16) Dunnett’s post-test and compared with WT. The P value was defined as: *P<0.05;
as §8, §9
(§17) f Receptor expression level of HEK 293F cells was determined independently by flow
(§18) cytometry with anti-FLAG antibody and shown as per cent compared to the WT.

SSTR2 [13] = molecular target: T9, SSTR2 (Homo sapiens, UniProt P30874, S192A); assay: as above; format: cell-based; settings: HEK293F; SSTR2 mutant S192^ECL2A; mean ± SEM; read-out: Span
T9 construct: expressed in transfected cells; host or cells: HEK293F
Procedure: as §10, §11, §12, §13, §14, §15, §6, §16, §8, §9, §17, §18

SSTR2 [14] = molecular target: T10, SSTR2 (Homo sapiens, UniProt P30874, F208A); assay: as above; format: cell-based; settings: HEK293F; SSTR2 mutant F208^5.38A; mean ± SEM; read-out: Span
T10 construct: expressed in transfected cells; host or cells: HEK293F
Procedure: as §10, §11, §12, §13, §14, §15, §6, §16, §8, §9, §17, §18

SSTR2 [15] = molecular target: T11, SSTR2 (Homo sapiens, UniProt P30874, P286A); assay: as above; format: cell-based; settings: HEK293F; SSTR2 mutant P286^ECL3A; mean ± SEM; read-out: Span
T11 construct: expressed in transfected cells; host or cells: HEK293F
Procedure: as §10, §11, §12, §13, §14, §15, §6, §16, §8, §9, §17, §18

SSTR2 [16] = molecular target: T12, SSTR2 (Homo sapiens, UniProt P30874, I284A); assay: as above; format: cell-based; settings: HEK293F; SSTR2 mutant I284^ECL3A; mean ± SEM; read-out: Span
T12 construct: expressed in transfected cells; host or cells: HEK293F
Procedure: as §10, §11, §12, §13, §14, §15, §6, §16, §8, §9, §17, §18

SSTR2 [17] = molecular target: T13, SSTR2 (Homo sapiens, UniProt P30874, N276A); assay: as above; format: cell-based; settings: HEK293F; SSTR2 mutant N276^6.55A; mean ± SEM; read-out: Span
T13 construct: expressed in transfected cells; host or cells: HEK293F
Procedure: as §10, §11, §12, §13, §14, §15, §6, §16, §8, §9, §17, §18

SSTR2 [18] = molecular target: T14, SSTR2 (Homo sapiens, UniProt P30874, V298A); assay: as above; format: cell-based; settings: HEK293F; SSTR2 mutant V298^7.39A; mean ± SEM; read-out: Span
T14 construct: expressed in transfected cells; host or cells: HEK293F
Procedure: as §10, §11, §12, §13, §14, §15, §6, §16, §8, §9, §17, §18

SSTR2 [19] = molecular target: T15, SSTR2 (Homo sapiens, UniProt P30874, F294N); assay: as above; format: cell-based; settings: HEK293F; SSTR2 mutant F294^7.35N; mean ± SEM; read-out: Span
T15 construct: expressed in transfected cells; host or cells: HEK293F
Procedure: as §10, §11, §12, §13, §14, §15, §6, §16, §8, §9, §17, §18

SSTR2 [20] = molecular target: T16, SSTR2 (Homo sapiens, UniProt P30874, Y205W); assay: as above; format: cell-based; settings: HEK293F; SSTR2 mutant Y205^5.35W; mean ± SEM; read-out: Span
T16 construct: expressed in transfected cells; host or cells: HEK293F
Procedure: as §10, §11, §12, §13, §14, §15, §6, §16, §8, §9, §17, §18

SSTR2 [21] = molecular target: T1, SSTR2; assay: as above; format: cell-based; design: expressed in transfected cells; host or cells: HEK293F; settings: HEK293F; SSTR2 mutant F294^7.35A; mean ± SEM; read-out: Span
Procedure: as §10, §11, §12, §13, §14, §15, §6, §16, §8, §9, §17, §18

SSTR2 [22] = molecular target: T2, SSTR2; assay: as above; format: cell-based; design: expressed in transfected cells; host or cells: HEK293F; settings: HEK293F; SSTR2 mutant F272^6.51A; mean ± SEM; read-out: Span
Procedure: as §10, §11, §12, §13, §14, §15, §6, §16, §8, §9, §17, §18

SSTR2 [23] = molecular target: SSTR2 (Homo sapiens, UniProt P30874, T194A); assay: as above; format: cell-based; design: expressed in transfected cells; host or cells: HEK293F; settings: HEK293F; SSTR2 mutant T194^ECL2A; mean ± SEM; read-out: Span
Procedure: as §10, §11, §12, §13, §14, §15, §6, §16, §8, §9, §17, §18

SSTR2 [24] = molecular target: T3, SSTR2; assay: as above; format: cell-based; design: expressed in transfected cells; host or cells: HEK293F; settings: HEK293F; SSTR2 mutant Q102^2.63A; mean ± SEM; read-out: Span
Procedure: as §10, §11, §12, §13, §14, §15, §6, §16, §8, §9, §17, §18

SSTR2 [25] = molecular target: SSTR2 (Homo sapiens, UniProt P30874, T212A); assay: as above; format: cell-based; design: expressed in transfected cells; host or cells: HEK293F; settings: HEK293F; SSTR2 mutant T212^5.42A; mean ± SEM; read-out: Span
Procedure: as §10, §11, §12, §13, §14, §15, §6, §16, §8, §9, §17, §18

SSTR2 [26] = molecular target: T4, SSTR2; assay: as above; format: cell-based; design: expressed in transfected cells; host or cells: HEK293F; settings: HEK293F; SSTR2 mutant D122^3.32A; mean ± SEM; read-out: Span
Procedure: as §10, §11, §12, §13, §14, §15, §6, §16, §8, §9, §17, §18

SSTR2 [27] = molecular target: T5, SSTR2; assay: as above; format: cell-based; design: expressed in transfected cells; host or cells: HEK293F; settings: HEK293F; SSTR2 mutant Y302^7.43A; mean ± SEM; read-out: Span
Procedure: as §10, §11, §12, §13, §14, §15, §6, §16, §8, §9, §17, §18

SSTR2 [28] = molecular target: T6, SSTR2; assay: as above; format: cell-based; design: expressed in transfected cells; host or cells: HEK293F; settings: HEK293F; SSTR2 mutant Q126^3.36A; mean ± SEM; read-out: Span
Procedure: as §10, §11, §12, §13, §14, §15, §6, §16, §8, §9, §17, §18

SSTR2 [29] = molecular target: T7, SSTR2; assay: as above; format: cell-based; design: expressed in transfected cells; host or cells: HEK293F; settings: HEK293F; WT SSTR2; window between Emax and vehicle; mean ± SEM; read-out: Span
Procedure: as §10, §11, §12, §13, §14, §15, §6, §16, §8, §9, §17, §18

SSTR2 [30] = molecular target: SSTR2 (Homo sapiens, UniProt P30874, Y205A); assay: Whole cell binding assay, SSTR2, competition with 125I-Tyr11-SST14, CHO-K1; settings: CHO-K1, read-out: Span;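 also: Cell-bound radioactivity in lysed CHO-K1 cells read by scintillation counting, each mutation introduced singly into the WT receptor, at least three independent experiments run in technical triplicate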
Chain of SSTR2 (Homo sapiens, UniProt P30874, Y205A) (P30874 whole entry Y205A): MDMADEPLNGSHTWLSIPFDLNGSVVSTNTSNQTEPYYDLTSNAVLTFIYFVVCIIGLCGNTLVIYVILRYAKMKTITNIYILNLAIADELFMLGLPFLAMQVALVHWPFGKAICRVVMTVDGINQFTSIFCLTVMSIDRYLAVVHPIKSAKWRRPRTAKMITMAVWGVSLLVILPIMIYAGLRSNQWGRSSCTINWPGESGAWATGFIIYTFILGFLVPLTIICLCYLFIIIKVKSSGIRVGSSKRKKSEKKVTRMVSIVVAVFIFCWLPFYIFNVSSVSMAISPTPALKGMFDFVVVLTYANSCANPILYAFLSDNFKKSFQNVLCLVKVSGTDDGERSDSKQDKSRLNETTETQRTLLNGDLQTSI
Procedure: as §1, §2
and expressed in CHO K1 cells.
as §3, §4, §5, §6, §7, §8, §9

T2 sequence (P30874 whole entry F272A): as the sequence (P30874 whole entry Y205A) above, with A205Y, F272A counted along it
T3 sequence (P30874 whole entry Q102A): as the sequence (P30874 whole entry Y205A) above, with Q102A, A205Y counted along it
T4 sequence (P30874 whole entry D122A): as the sequence (P30874 whole entry Y205A) above, with D122A, A205Y counted along it
Chain of SSTR2 (Homo sapiens, UniProt P30874, F275A) (P30874 whole entry F275A): as the sequence (P30874 whole entry Y205A) above, with A205Y, F275A counted along it
T7 sequence (P30874 whole entry): as the sequence (P30874 whole entry Y205A) above, with A205Y counted along it
T6 sequence (P30874 whole entry Q126A): as the sequence (P30874 whole entry Y205A) above, with Q126A, A205Y counted along it
T1 sequence (P30874 whole entry F294A): as the sequence (P30874 whole entry Y205A) above, with A205Y, F294A counted along it
T5 sequence (P30874 whole entry Y302A): as the sequence (P30874 whole entry Y205A) above, with A205Y, Y302A counted along it
Chain of SSTR2 (Homo sapiens, UniProt P30874, S42A) (P30874 whole entry S42A): as the sequence (P30874 whole entry Y205A) above, with S42A, A205Y counted along it
Chain of SSTR2 (Homo sapiens, UniProt P30874, D295A) (P30874 whole entry D295A): as the sequence (P30874 whole entry Y205A) above, with A205Y, D295A counted along it
Chain of SSTR2 (Homo sapiens, UniProt P30874, N43A) (P30874 whole entry N43A): as the sequence (P30874 whole entry Y205A) above, with N43A, A205Y counted along it
Chain of SSTR2 (Homo sapiens, UniProt P30874, T194A) (P30874 whole entry T194A): as the sequence (P30874 whole entry Y205A) above, with T194A, A205Y counted along it
T9 sequence (P30874 whole entry S192A): as the sequence (P30874 whole entry Y205A) above, with S192A, A205Y counted along it
T14 sequence (P30874 whole entry V298A): as the sequence (P30874 whole entry Y205A) above, with A205Y, V298A counted along it
T12 sequence (P30874 whole entry I284A): as the sequence (P30874 whole entry Y205A) above, with A205Y, I284A counted along it
T10 sequence (P30874 whole entry F208A): as the sequence (P30874 whole entry Y205A) above, with A205Y, F208A counted along it
T15 sequence (P30874 whole entry F294N): as the sequence (P30874 whole entry Y205A) above, with A205Y, F294N counted along it
T11 sequence (P30874 whole entry P286A): as the sequence (P30874 whole entry Y205A) above, with A205Y, P286A counted along it
T16 sequence (P30874 whole entry Y205W): as the sequence (P30874 whole entry Y205A) above, with A205W counted along it
Chain of SSTR2 (Homo sapiens, UniProt P30874, T212A) (P30874 whole entry T212A): as the sequence (P30874 whole entry Y205A) above, with A205Y, T212A counted along it
T8 sequence (P30874 whole entry K291A): as the sequence (P30874 whole entry Y205A) above, with A205Y, K291A counted along it
T13 sequence (P30874 whole entry N276A): as the sequence (P30874 whole entry Y205A) above, with A205Y, N276A counted along it

CC(=O)N[C@@H](Cc1ccc([N+](=O)[O-])cc1)C(=O)N[C@@H]1CSSC[C@@H](C(=O)N[C@H](Cc2ccc(O)cc2)C(N)=O)NC(=O)[C@H]([C@@H](C)O)NC(=O)[C@H](CCCCN)NC(=O)[C@@H](Cc2c[nH]c3ccccc23)NC(=O)[C@H](Cc2ccc(O)cc2)NC1=O [CYN 154806]
IC50 (SSTR2 [1]): 21.9 nM
Emax (SSTR2 [1]): 69 ± 7%
IC50 (SSTR2 [2]): 21.9 nM
Emax (SSTR2 [2]): 36 ± 6%
IC50 (SSTR2 [3]): 23.4 nM
Emax (SSTR2 [3]): 21 ± 6%
IC50 (SSTR2 [4]): 3.55 nM
Emax (SSTR2 [4]; CHO-K1, read-out: Span): 62 ± 6%
IC50 (SSTR2 [5]): 8.13 nM
Emax (SSTR2 [5]; CHO-K1, read-out: Span): 96 ± 8%
IC50 (SSTR2 [6]): 20.4 nM
Emax (SSTR2 [6]): 24 ± 5%
Emax (SSTR2 [7]): 20 ± 2%
Emax (SSTR2 [8]): 15 ± 5%
IC50 (SSTR2 [9]): 135 nM
Emax (SSTR2 [9]): 25 ± 4%
IC50 (SSTR2 [10]): 4.37 nM
Emax (SSTR2 [10]): 100 ± 6%
IC50 (SSTR2 [11]): 2.75 nM
Emax (SSTR2 [11]; CHO-K1, read-out: Span): 145 ± 9%

C[C@@H](O)[C@@H]1NC(=O)[C@H](CCCCN)NC(=O)[C@@H](Cc2c[nH]c3ccccc23)NC(=O)[C@H](Cc2ccccc2)NC(=O)[C@@H](NC(=O)[C@H](N)Cc2ccccc2)CSSC[C@@H](C(=O)N[C@H](CO)[C@@H](C)O)NC1=O [Octreotide]
Emax (SSTR2 [12]): 103 ± 8%
Emax (SSTR2 [13]): 146 ± 13%
Emax (SSTR2 [14]): 128 ± 8%
Emax (SSTR2 [15]): 72 ± 8%
Emax (SSTR2 [16]): 58 ± 8%
Emax (SSTR2 [17]): 75 ± 9%
Emax (SSTR2 [18]): 127 ± 4%
Emax (SSTR2 [19]): 47 ± 9%
Emax (SSTR2 [20]): 97 ± 10%
Emax (SSTR2 [21]): 123 ± 10%
Emax (SSTR2 [22]): 134 ± 17%
Emax (SSTR2 [23]): 125 ± 7%
Emax (SSTR2 [24]): 30 ± 5%
Emax (SSTR2 [25]): 90 ± 10%
Emax (SSTR2 [26]): 16 ± 4%
Emax (SSTR2 [27]): 147 ± 12%
Emax (SSTR2 [28]): 101 ± 7%
Emax (SSTR2 [29]): 100 ± 4%
Emax (SSTR2 [1]): 51 ± 4%
Emax (SSTR2 [2]): 28 ± 9%
Emax (SSTR2 [3]): 26 ± 6%
Emax (SSTR2 [30]): 60 ± 5%
Emax (SSTR2 [6]): 27 ± 4%
Emax (SSTR2 [7]): 16 ± 7%
Emax (SSTR2 [8]): 18 ± 7%
Emax (SSTR2 [9]): 16 ± 8%
Emax (SSTR2 [10]): 100 ± 7%
